{"source": "patent US8092816B2", "about": "“Insecticidal compositions for control of general household pests” (priority 2004, dated 2012)", "type_in_all_cases": "in vivo", "key": {"[1]": {"tested_on": "House Fly", "experiment": "Example 11: house fly knockdown and mortality, bifenthrin and thiamethoxam", "description": "(§1) The following examples further illustrate the present invention, but, of course, should not be construed as in any way limiting its scope. The examples set forth certain biological data illustrating the efficacy of the compositions of the present invention in controlling general household pests. Each example embodies a separate test wherein the pests were randomly selected from a population at a random age. As a result, from example to example, the ages of the pests can be very different. This age difference potentially translates to different baselines for each example. Therefore, data should only be compared within the example and not from example to example due to the differences in age of the pests from example to example. Unless otherwise indicated, all parts, percentages, and the like are by weight. The spray chamber used in the examples was approximately 76 inches tall, 73 inches long and 31 inches deep with an adjustable shelf (approximately 22 inches deep) and a movable spray nozzle. The spray chambers were calibrated to deliver a volume of approximately 1 gallon of liquid per 1000 square feet of area at about 14 pounds per square inch of pressure. A DeVilbiss hand held sprayer (Atomizer model 152) manufactured by DeVilbiss located in Glendale Heights, Ill. was used in testing house flies and mosquitoes. The DeVilbiss was used to apply approximately 3-5 milliliters of product at about 10 pounds per square inch.\n(§2) The compositions of the present invention were tested for house fly activity in the following manner:\nTest compositions made up of TALSTARONE® MULTI-INSECTICIDE and a water dispersible granular of thiamethoxam (CENTRIC) in distilled water were prepared that provided appropriate rates of application of combinations of bifenthrin and thiamethoxam, as well as bifenthrin and thiamethoxam alone.\n(§3) A DeVilbiss hand held sprayer was used to deliver the treatment solution at the desired volume and pressure. The house flies to be treated were collected and placed in screened 16 oz paper cups. The hand held sprayer was activated and the test compound was applied to each paper cup interior. House fly knockdown and mortality were measured."}, "[2]": {"tested_on": "Yellow Fever Mosquito", "description": "as §1\nThe compositions of the present invention were tested for Yellow Fever Mosquito activity in the following manner:\n(§4) Test compositions made up of TALSTARONE® MULTI-INSECTICIDE and a 16% a.i. water dispersible granular of clothianidin in distilled water were prepared that provided appropriate rates of application of combinations of bifenthrin and clothianidin, as well as bifenthrin and clothianidin alone.\nas §3, with “Yellow Fever Mosquitoes” for “house flies”, “Yellow Fever Mosquito” for “House fly”"}, "[3]": {"tested_on": "House Flies", "experiment": "Example 17: house fly knockdown and mortality, bifenthrin and clothianidin", "description": "as §1, §2, §4, §3"}, "[4]": {"tested_on": "German cockroach", "experiment": "Example 2: German cockroach knockdown and mortality, bifenthrin and imidacloprid", "description": "as §1\n(§5) The compositions of the present invention were tested for German cockroach activity in the following manner:\n(§6) Test compositions made up of TALSTARONE® MULTI-INSECTICIDE and a wettable powder of imidacloprid (MERIT) in distilled water were prepared that provided appropriate rates of application of combinations of bifenthrin and imidacloprid, as well as bifenthrin and imidacloprid alone.\n(§7) The spray chamber was then calibrated to deliver the treatment solution at the desired volume and pressure over the desired area on the chamber shelf. Spray chamber shelf height was adjusted to approximately 18 inches from the spray tip. The shelf was then covered with aluminum foil and the center of the shelf from front-to-back and end-to-end was determined. A desired number of 4.0″ sieve circles were marked on the aluminum foil with a permanent marker. The inside of a desired number of PVC rings were coated with a petroleum jelly/mineral oil mixture (1:2 ratio). The PVC rings were place on the sieve circles. 10 male German cockroaches were placed inside each PVC ring. The sprayer was activated and the test compound was applied to each PVC ring interior. German cockroach knockdown and mortality were measured."}, "[5]": {"tested_on": "German cockroach", "experiment": "Example 1: German cockroach mortality, spray of bifenthrin and imidacloprid combinations", "description": "as §1, §5, §6\nas §7, with “cockroach” for “cockroach knockdown and”, “mortality was” for “mortality were”"}, "[6]": {"settings": "rate of appln. 10 PPM (0.001% by weight)"}, "[7]": {"settings": "rate of appln. 50 PPM (0.005% by weight)"}}, "note": "Read-outs that look alike come from different tables or passages of the source.", "data": [{"smiles": "Cc1c(COC(=O)[C@@H]2[C@H](/C=C(\\Cl)C(F)(F)F)C2(C)C)cccc1-c1ccccc1", "note": "(racemic) [A, 2-methylbiphenyl-3-ylmethyl (Z)-(1RS)-cis-3-(2-chloro-3,3,3-trifluoroprop-1-enyl)-2,2-dimethylcyclopropanecarboxylate]", "values": [{"measurement": "Knockdown Rate @ 15 minute", "setting": "[1]; A 10 PPM, 0.001% by weight", "value": 0, "unit": "%"}, {"measurement": "Knockdown Rate @ 30 minute", "setting": "[1]; A 10 PPM, 0.001% by weight", "value": 0, "unit": "%"}, {"measurement": "Knockdown Rate @ 45 minutes", "setting": "[1]; A 10 PPM, 0.001% by weight", "value": 6, "unit": "%"}, {"measurement": "Knockdown Rate @ 60 minutes", "setting": "[1]; A 10 PPM, 0.001% by weight", "value": 19, "unit": "%"}, {"measurement": "Knockdown Rate @ 120 minutes", "setting": "[1]; A 10 PPM, 0.001% by weight", "value": 19, "unit": "%"}, {"measurement": "Knockdown Rate @ 4 hours", "setting": "[1]; A 10 PPM, 0.001% by weight", "value": 48, "unit": "%"}, {"measurement": "Mortality Rate @ 1 day", "setting": "[1]; A 10 PPM, 0.001% by weight", "value": 3, "unit": "%"}, {"measurement": "Knockdown Rate @ 15 minute", "setting": "[1]; A 50 PPM, 0.005% by weight", "value": 0, "unit": "%"}, {"measurement": "Knockdown Rate @ 30 minute", "setting": "[1]; A 50 PPM, 0.005% by weight", "value": 19, "unit": "%"}, {"measurement": "Knockdown Rate @ 45 minutes", "setting": "[1]; A 50 PPM, 0.005% by weight", "value": 47, "unit": "%"}, {"measurement": "Knockdown Rate @ 60 minutes", "setting": "[1]; A 50 PPM, 0.005% by weight", "value": 59, "unit": "%"}, {"measurement": "Knockdown Rate @ 120 minutes", "setting": "[1]; A 50 PPM, 0.005% by weight", "value": 63, "unit": "%"}, {"measurement": "Knockdown Rate @ 4 hours", "setting": "[1]; A 50 PPM, 0.005% by weight", "value": 100, "unit": "%"}, {"measurement": "Mortality Rate @ 1 day", "setting": "[1]; A 50 PPM, 0.005% by weight", "value": 63, "unit": "%"}, {"measurement": "Knockdown Rate @ 15 minute", "setting": "[2]; [6]", "value": 27, "unit": "%"}, {"measurement": "Knockdown Rate @ 30 minute", "setting": "[2]; [6]", "value": 97, "unit": "%"}, {"measurement": "Mortality Rate @ 45 minutes", "setting": "[2]; [6]", "value": 100, "unit": "%"}, {"measurement": "Mortality Rate @ 60 minutes", "setting": "[2]; [6]", "value": 100, "unit": "%"}, {"measurement": "Mortality Rate @ 120 minutes", "setting": "[2]; [6]", "value": 100, "unit": "%"}, {"measurement": "Mortality Rate @ 180 minute", "setting": "[2]; [6]", "value": 100, "unit": "%"}, {"measurement": "Mortality Rate @ 4 hours", "setting": "[2]; [6]", "value": 100, "unit": "%"}, {"measurement": "Mortality Rate @ 1 day", "setting": "[2]; [6]", "value": 100, "unit": "%"}, {"measurement": "Knockdown Rate @ 15 minute", "setting": "[2]; [7]", "value": 90, "unit": "%"}, {"measurement": "Knockdown Rate @ 30 minute", "setting": "[2]; [7]", "value": 100, "unit": "%"}, {"measurement": "Mortality Rate @ 45 minutes", "setting": "[2]; [7]", "value": 100, "unit": "%"}, {"measurement": "Mortality Rate @ 60 minutes", "setting": "[2]; [7]", "value": 100, "unit": "%"}, {"measurement": "Mortality Rate @ 120 minutes", "setting": "[2]; [7]", "value": 100, "unit": "%"}, {"measurement": "Mortality Rate @ 180 minute", "setting": "[2]; [7]", "value": 100, "unit": "%"}, {"measurement": "Mortality Rate @ 4 hours", "setting": "[2]; [7]", "value": 100, "unit": "%"}, {"measurement": "Mortality Rate @ 1 day", "setting": "[2]; [7]", "value": 100, "unit": "%"}, {"measurement": "Knockdown Rate @ 15 minute", "setting": "[3]; [6]", "value": 0, "unit": "%"}, {"measurement": "Knockdown Rate @ 30 minute", "setting": "[3]; [6]", "value": 0, "unit": "%"}, {"measurement": "Knockdown Rate @ 45 minutes", "setting": "[3]; [6]", "value": 0, "unit": "%"}, {"measurement": "Knockdown Rate @ 60 minutes", "setting": "[3]; [6]", "value": 0, "unit": "%"}, {"measurement": "Knockdown Rate @ 120 minutes", "setting": "[3]; [6]", "value": 3, "unit": "%"}, {"measurement": "Knockdown Rate @ 180 minutes", "setting": "[3]; [6]", "value": 3, "unit": "%"}, {"measurement": "Knockdown Rate @ 4 hours", "setting": "[3]; [6]", "value": 3, "unit": "%"}, {"measurement": "Mortality Rate @ 1 day", "setting": "[3]; [6]", "value": 3, "unit": "%"}, {"measurement": "Knockdown Rate @ 15 minute", "setting": "[3]; [7]", "value": 3, "unit": "%"}, {"measurement": "Knockdown Rate @ 30 minute", "setting": "[3]; [7]", "value": 55, "unit": "%"}, {"measurement": "Knockdown Rate @ 45 minutes", "setting": "[3]; [7]", "value": 66, "unit": "%"}, {"measurement": "Knockdown Rate @ 60 minutes", "setting": "[3]; [7]", "value": 68, "unit": "%"}, {"measurement": "Knockdown Rate @ 120 minutes", "setting": "[3]; [7]", "value": 74, "unit": "%"}, {"measurement": "Knockdown Rate @ 180 minutes", "setting": "[3]; [7]", "value": 74, "unit": "%"}, {"measurement": "Knockdown Rate @ 4 hours", "setting": "[3]; [7]", "value": 76, "unit": "%"}, {"measurement": "Mortality Rate @ 1 day", "setting": "[3]; [7]", "value": 79, "unit": "%"}, {"measurement": "Knockdown Rate @ 10 minute", "setting": "[4]; 200 PPM, 0.02% by weight", "value": 0, "unit": "%"}, {"measurement": "Knockdown Rate @ 15 minute", "setting": "[4]; 200 PPM, 0.02% by weight", "value": 3, "unit": "%"}, {"measurement": "Knockdown Rate @ 30 minutes", "setting": "[4]; 200 PPM, 0.02% by weight", "value": 45, "unit": "%"}, {"measurement": "Mortality Rate @ 60 minutes", "setting": "[4]; 200 PPM, 0.02% by weight", "value": 100, "unit": "%"}, {"measurement": "Mortality Rate @ 120 minutes", "setting": "[4]; 200 PPM, 0.02% by weight", "value": 100, "unit": "%"}, {"measurement": "Mortality Rate @ 1 day", "setting": "[4]; 200 PPM, 0.02% by weight", "value": 100, "unit": "%"}, {"measurement": "Knockdown Rate @ 10 minute", "setting": "[4]; 600 PPM, 0.06% by weight", "value": 0, "unit": "%"}, {"measurement": "Knockdown Rate @ 15 minute", "setting": "[4]; 600 PPM, 0.06% by weight", "value": 8, "unit": "%"}, {"measurement": "Knockdown Rate @ 30 minutes", "setting": "[4]; 600 PPM, 0.06% by weight", "value": 60, "unit": "%"}, {"measurement": "Mortality Rate @ 60 minutes", "setting": "[4]; 600 PPM, 0.06% by weight", "value": 100, "unit": "%"}, {"measurement": "Mortality Rate @ 120 minutes", "setting": "[4]; 600 PPM, 0.06% by weight", "value": 100, "unit": "%"}, {"measurement": "Mortality Rate @ 1 day", "setting": "[4]; 600 PPM, 0.06% by weight", "value": 100, "unit": "%"}, {"measurement": "Mortality Rate @ 60 minutes", "setting": "[5]; 10 PPM, 0.001% by weight", "value": 3, "unit": "%"}, {"measurement": "Mortality Rate @ 120 minutes", "setting": "[5]; 10 PPM, 0.001% by weight", "value": 33, "unit": "%"}, {"measurement": "Mortality Rate @ 1 day", "setting": "[5]; 10 PPM, 0.001% by weight", "value": 33, "unit": "%"}, {"measurement": "Mortality Rate @ 2 days", "setting": "[5]; 10 PPM, 0.001% by weight", "value": 60, "unit": "%"}, {"measurement": "Mortality Rate @ 60 minutes", "setting": "[5]; 50 PPM, 0.005% by weight", "value": 30, "unit": "%"}, {"measurement": "Mortality Rate @ 120 minutes", "setting": "[5]; 50 PPM, 0.005% by weight", "value": 48, "unit": "%"}, {"measurement": "Mortality Rate @ 1 day", "setting": "[5]; 50 PPM, 0.005% by weight", "value": 58, "unit": "%"}, {"measurement": "Mortality Rate @ 2 days", "setting": "[5]; 50 PPM, 0.005% by weight", "value": 100, "unit": "%"}]}]}
